Laboratory results published in patent US11414387B2, “Oxoacridinyl acetic acid derivatives and methods of use” (Stingthera, Inc., priority 2017, dated 2022).

Experiments:
STING protein = STING protein (Homo sapiens (Human), UniProt Q86WV6, H232R); assay: Cell based reporter assay of IRF activation (IRF-luciferase), THP1-dual-KI R232; conditions: read-out: THP1-dual-KI R232_IRF(Luciferase)_Activity Maximum measured (%)
Excerpt: Briefly, THP-1 monocytes were transfected and selected for stable integration of 2 reporter constructs. Clones incorporating stably integrated vectors were further selected by antibiotic resistance to blastocidin and zeocin. The reporter constructs included: (1) firefly luciferase reporter gene under the control of an ISG54 promoter fused to five interferon (IFN)-stimulated response elements to measure IRF transcription factor binding activity and (2) secreted embryonic alkaline phosphatase reporter gene under transcription control of an IFN-beta minimal promoter fused to 5 copies of the NFkB consensus transcriptional response element and 3 copies of the c-Rel binding site.
The resulting THP-1 cell line was further modified to incorporate 3 amino acid point mutations (H71R A230G Q293R). This modification of the native TMEM173 gene in THP-1 cells (HAQ) was designed to produce a cell reporter that expressed the most common allelic variant in the human population (THP-1 R232, available from InvivoGen). Alternatively, the TMEM173 gene was knocked out to provide a congenic control to counter-screen for compound activation that was independent of the STING protein (THP-1 STING KO).
Once cell lines were established, reporter assay protocols were developed and optimized to screen small molecule compounds for agonist activity. Assay optimization for efficacy and Z′ value included titration of the following parameters:
• 1. Cell pre-activation with PMA • 2. Cell seeding density • 3. DMSO tolerance • 4. Media selection • 5. FBS concentration • 6. Incubation time • 7. Co-Assessment of cell viability by CTG assay • 8. Appropriate HPE and ZPE controls • 9. Dose Response Titration Final Assay SOP Conditions • 1. No pre-activation with PMA • 2. 5×10^4 cells/well in 96 well plate format • 3. <0.5% DMSO • 4. […] 10% FBS • 6. 14-18 hr incubation • 7. Cell Titer Glo reagent (Promega) following supernatant removal • 8.

mSTING = mSTING (Mus musculus, UniProt Q3TBT3); assay: Radiometric filtration binding competition assay, mSTING
hSTING-R232 = hSTING-R232 (Homo sapiens (Human), UniProt Q86WV6, H232R); assay: STING differential scanning fluorimetry (DSF) assay, WT human STING; conditions: WT (R232) human STING aa140-379, net shift in melting temperature
mSTING-R232 = mSTING-R232 (Mus musculus, UniProt Q3TBT3); assay: STING differential scanning fluorimetry (DSF) assay, mouse STING; conditions: net shift in melting temperature
Description: A STING DSF assay was performed to determine protein thermostability shift in response to small molecule ligand binding. A STING thermostability shift assay based on differential scanning fluorimetry was used to measure (1) the net shift in melting temperature (ΔTm)between the apo and ligand-bound states of the STING protein and (2) the concentration of the thermal denaturation transition (EC50) as a surrogate measure of binding affinity (K). […] Protein in assay buffer was transferred to a 384 well plate and incubated with the hydrophobic fluorescent dye SYBR Orange. A temperature ramp was applied to the plate and the resulting dye fluorescence was plotted as a function of temperature. The first derivative of this function (dF/dT) was then used to extrapolate the melting temperature of the protein at various concentrations of compound and determine the thermal denaturation profile of a protein/compound complex.
• 1. Protein construct (affinity tag removal vs SUMO-fusion construct) • 2. Protein concentration • 3. Dye concentration • 4. Buffer • 5. Thermal ramp velocity • 6. DMSO tolerance • 7. Compound titration parameters • 8. […] 5 μM purified Target STING Protein • 3. 8 μM Sypro Orange Dye • 4. Buffer: 100 mM NaCl, 30 mM HEPES, pH 7.5 • 5. Thermal Ramp: 0.5° C./min • 6. <1% DMSO • 7. 11 point, 2 fold dilution, duplicate, 300 μM high concentrations • 8.

hSTING-WT = hSTING-WT (Homo sapiens (Human), UniProt Q86WV6, H232R); assay: Radiometric filtration binding competition assay, hSTING-WT
Sequence of hSTING-WT (Q86WV6 140-379 H232R): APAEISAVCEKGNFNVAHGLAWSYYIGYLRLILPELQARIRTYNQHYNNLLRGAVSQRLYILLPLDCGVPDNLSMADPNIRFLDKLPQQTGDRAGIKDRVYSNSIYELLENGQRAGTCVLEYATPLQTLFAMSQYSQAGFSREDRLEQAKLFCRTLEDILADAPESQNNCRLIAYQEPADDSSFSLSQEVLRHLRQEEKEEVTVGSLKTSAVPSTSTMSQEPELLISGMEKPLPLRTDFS

Sequence of hSTING-R232 (Q86WV6 140-379 H232R): as above
Sequence of STING protein (Q86WV6 whole entry H232R): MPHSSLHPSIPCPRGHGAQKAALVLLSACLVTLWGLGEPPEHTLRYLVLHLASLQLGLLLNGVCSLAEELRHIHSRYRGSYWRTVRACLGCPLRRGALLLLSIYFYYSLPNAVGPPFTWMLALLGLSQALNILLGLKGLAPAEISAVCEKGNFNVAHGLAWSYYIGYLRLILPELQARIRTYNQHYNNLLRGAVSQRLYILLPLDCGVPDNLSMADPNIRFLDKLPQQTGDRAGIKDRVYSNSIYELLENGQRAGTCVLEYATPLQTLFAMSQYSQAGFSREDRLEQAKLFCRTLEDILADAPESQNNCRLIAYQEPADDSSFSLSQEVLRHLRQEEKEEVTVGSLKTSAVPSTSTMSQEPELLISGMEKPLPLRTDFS

| Structure (SMILES) | Emax (STING protein) | IC50 (mSTING) | WT_DSF_hSWAT Tm Shift (° C.) (hSTING-R232) | MOUSE DSF_6xHIS-SUMO Tm Shift (° C.) (mSTING-R232) | IC50 (hSTING-WT) |
| --- | --- | --- | --- | --- | --- |
| O=C(O)Cn1c2ccccc2c(=O)c2ccc(Br)c(Br)c21 [Compound 108] | 5 to 25% | 100 to 300 µM | C (“C” = 2-7° C,) | C (“C” = 5-15° C.) | > 300 µM |
| O=C(O)Cn1c2cc(-c3cccc(F)c3)ccc2c(=O)c2ccc(Cl)c(Cl)c21 [Compound 152] | 5 to 25% | 20 to 100 µM | C (“C” = 2-7° C,) | C (“C” = 5-15° C.) | 20 to 100 µM |
| O=C(O)Cn1c2cc(-c3ccc(Cl)cc3)ccc2c(=O)c2ccc(Cl)c(Cl)c21 [Compound 156] | < 5% | < 20 µM | B (“B” = 0-2° C.) | C (“C” = 5-15° C.) | 100 to 300 µM |
| CC1(C)CCCC(c2ccc3c(=O)c4ccc(Cl)c(Cl)c4n(CC(=O)O)c3c2)C1 (stereo not drawn) [Compound 158] | < 5% | – | C (“C” = 2-7° C,) | D (“D” > 15° C.) | < 20 µM |
| O=C(O)Cn1c2cc(-c3cccc(Cl)n3)ccc2c(=O)c2ccc(Cl)c(Cl)c21 [Compound 162] | < 5% | – | A (“A” < 0° C.) | C (“C” = 5-15° C.) | 100 to 300 µM |
| Cc1ccc(-c2ccc3c(=O)c4ccc(Cl)c(Cl)c4n(CC(=O)O)c3c2)cc1F [Compound 163] | 5 to 25% | – | C (“C” = 2-7° C,) | D (“D” > 15° C.) | 20 to 100 µM |
| CC(C)c1ccc2c(=O)c3ccc(Br)c(Cl)c3n(CC(=O)O)c2c1 [Compound 170] | 25 to 50% | – | B (“B” = 0-2° C.) | C (“C” = 5-15° C.) | 20 to 100 µM |
| Cc1ccc2c(=O)c3ccc(Cl)cc3n(C(C)C(=O)O)c2c1 (stereo not drawn) [Compound 171] | < 5% | – | A (“A” < 0° C.) | B (“B” = 0-5° C.) | > 300 µM |
| CC(C)c1ccc2c(=O)c3ccc(Cl)c(Cl)c3n(C)c2c1 [Compound 174] | < 5% | – | B (“B” = 0-2° C.) | B (“B” = 0-5° C.) | > 300 µM |
| O=C(O)Cn1c2cc(NC3CCC3)ccc2c(=O)c2ccc(Cl)c(Br)c21 [Compound 175] | > 50% | – | D (“D” > 7° C.) | D (“D” > 15° C.) | 20 to 100 µM |
| COc1c(Cl)ccc2c(=O)c3ccccc3n(CC(=O)O)c12 [Compound 178] | – | > 300 µM | C (“C” = 2-7° C,) | C (“C” = 5-15° C.) | > 300 µM |
| O=C(O)Cn1c2cc(-c3ccncc3)ccc2c(=O)c2ccc(Cl)c(Cl)c21 [Compound 189] | 5 to 25% | – | C (“C” = 2-7° C,) | C (“C” = 5-15° C.) | 100 to 300 µM |
| O=C(O)Cn1c2cc(Nc3ccccc3)ccc2c(=O)c2ccc(Cl)c(Br)c21 [Compound 206] | – | < 20 µM | D (“D” > 7° C.) | D (“D” > 15° C.) | 20 to 100 µM |
| CC(C)Oc1c(Cl)ccc2c(=O)c3ccc(C(C)(C)C)cc3n(CC(=O)O)c12 [Compound 225] | > 50% | 20 to 100 µM | D (“D” > 7° C.) | D (“D” > 15° C.) | < 20 µM |
| CCSc1ccc2c(=O)c3ccc(Cl)c(OC)c3n(CC(=O)O)c2c1 [Compound 231] | > 50% | < 20 µM | D (“D” > 7° C.) | D (“D” > 15° C.) | 20 to 100 µM |
| COc1c(Cl)ccc2c(=O)c3ccc(SC(C)C)cc3n(CC(=O)O)c12 [Compound 232] | > 50% | < 20 µM | D (“D” > 7° C.) | D (“D” > 15° C.) | 100 to 300 µM |
| COc1c(Cl)ccc2c(=O)c3ccc(SC)cc3n(CC(=O)O)c12 [Compound 234] | > 50% | < 20 µM | D (“D” > 7° C.) | D (“D” > 15° C.) | 20 to 100 µM |
| COc1c(Cl)ccc2c(=O)c3ccc(Nc4cccc(O)c4)cc3n(CC(=O)O)c12 [Compound 235] | < 5% | < 20 µM | D (“D” > 7° C.) | D (“D” > 15° C.) | < 20 µM |
| CCOc1c(Cl)ccc2c(=O)c3ccccc3n(CC(=O)O)c12 [Compound 244] | > 50% | 20 to 100 µM | D (“D” > 7° C.) | C (“C” = 5-15° C.) | 100 to 300 µM |
| COc1c(Cl)ccc2c(=O)c3ccc(Nc4ccc(F)cc4)cc3n(CC(=O)O)c12 [Compound 250] | > 50% | < 20 µM | D (“D” > 7° C.) | D (“D” > 15° C.) | < 20 µM |
| COc1c(Cl)ccc2c(=O)c3ccc(Nc4ccc(Cl)cc4)cc3n(CC(=O)O)c12 [Compound 251] | 25 to 50% | < 20 µM | D (“D” > 7° C.) | D (“D” > 15° C.) | 20 to 100 µM |
| CS(=O)(=O)Nc1cccc(Nc2ccc3c(=O)c4ccc(Cl)c(Cl)c4n(CC(=O)O)c3c2)c1 [Compound 257] | < 5% | < 20 µM | D (“D” > 7° C.) | D (“D” > 15° C.) | 20 to 100 µM |
| COc1c(Cl)ccc2c(=O)c3ccc(C(C)(C)C)cc3n(CC(=O)NS(C)(=O)=O)c12 [Compound 262] | > 50% | < 20 µM | D (“D” > 7° C.) | D (“D” > 15° C.) | 20 to 100 µM |
| COc1c(Cl)ccc2c(=O)c3ccc(Nc4cnccn4)cc3n(CC(=O)O)c12 [Compound 263] | < 5% | < 20 µM | D (“D” > 7° C.) | D (“D” > 15° C.) | 20 to 100 µM |
| COc1c(Cl)ccc2c(=O)c3ccc(Nc4ccc(OC(F)(F)F)cc4)cc3n(CC(=O)O)c12 [Compound 266] | > 50% | < 20 µM | D (“D” > 7° C.) | D (“D” > 15° C.) | < 20 µM |
| COc1c(Cl)ccc2c(=O)c3ccc(Nc4ccccc4Cl)cc3n(CC(=O)O)c12 [Compound 267] | > 50% | < 20 µM | D (“D” > 7° C.) | D (“D” > 15° C.) | < 20 µM |
| COc1c(Cl)ccc2c(=O)c3ccc(-c4ccc(O)cc4)cc3n(CC(=O)O)c12 [Compound 269] | > 50% | < 20 µM | D (“D” > 7° C.) | D (“D” > 15° C.) | < 20 µM |
| COc1c(Cl)ccc2c(=O)c3ccc(-c4cccc(O)c4)cc3n(CC(=O)O)c12 [Compound 270] | > 50% | < 20 µM | D (“D” > 7° C.) | D (“D” > 15° C.) | < 20 µM |
| COc1c(Cl)ccc2c(=O)c3ccc(-c4ccc(N)cc4)cc3n(CC(=O)O)c12 [Compound 274] | > 50% | < 20 µM | D (“D” > 7° C.) | D (“D” > 15° C.) | < 20 µM |
